Calls of active or inactive are those of the source. No cut-off for these calls is given here.
What was measured:
[1] = Cytotoxicity against human HL-60 cells by resazurin dye based fluorescence assay; type: cell-based
[2] = system: Trypanosoma brucei brucei; experiment: Antitrypanosomal activity against Trypanosoma brucei brucei S427 by resazurin dye based fluorescence assay; type: functional
[3] = Selectivity index, ratio of GI50 for human HL-60 cells to GI50 for antitrypanosomal activity against Trypanosoma brucei brucei S427; type: toxicity; conditions: read-out: RatioGI50
[4] = system: Trypanosoma brucei brucei; experiment: Antitrypanosomal activity against Trypanosoma brucei brucei assessed as cell swelling; type: functional, organism-based

SMILES	GI50 [2]	GI50 [1]	selectivity ratio [3]	Activity [4]
CCOC(=O)O[C@H]1C=C[C@]2(O[C@H]([C@@H](CC)C(=O)[C@@H](C)[C@@H](O)[C@H](C)[C@@H]3O[C@@H]([C@@H](CC)C(=O)O)CC[C@@H]3C)[C@@H](C)C[C@H]2C)O[C@@]12CC[C@@](C)([C@H]1CC[C@](O)(CC)[C@H](C)O1)O2	0.2 µM	12.6 µM	293	Active
Cc1ccc(C(=O)Nc2ccc(S(=O)(=O)O)c3cc(S(=O)(=O)O)cc(S(=O)(=O)O)c23)cc1NC(=O)c1cccc(NC(=O)Nc2cccc(C(=O)Nc3cc(C(=O)Nc4ccc(S(=O)(=O)O)c5cc(S(=O)(=O)O)cc(S(=O)(=O)O)c45)ccc3C)c2)c1 [SURAMIN]	0.058 µM	> 100 µM	> 1720	–
CC[C@@H](C(=O)[C@@H](C)[C@@H](O)[C@H](C)[C@@H]1O[C@@H]([C@@H](CC)C(=O)O)CC[C@@H]1C)[C@H]1O[C@]2(C=C[C@H](OC(C)=O)[C@]3(CC[C@@](C)([C@H]4CC[C@](O)(CC)[C@H](C)O4)O3)O2)[C@H](C)C[C@@H]1C	0.043 µM	52.5 µM	21.2	–
CC[C@@H](C(=O)[C@@H](C)[C@@H](O)[C@H](C)[C@@H]1O[C@@H]([C@@H](CC)C(=O)O)CC[C@@H]1C)[C@H]1O[C@]2(C=C[C@@H](O)[C@]3(CC[C@@](C)([C@H]4CC[C@](O)(CC)[C@H](C)O4)O3)O2)[C@H](C)C[C@@H]1C [SALINOMYCIN]	0.3 µM	50.5 µM	168	Active
CC[C@@H](C(=O)[C@@H](C)[C@@H](O)[C@H](C)[C@@H]1O[C@@H]([C@@H](CC)C(=O)O)CC[C@@H]1C)[C@H]1O[C@]2(C=C[C@H](O)[C@]3(CC[C@@](C)([C@H]4CC[C@](O)(CC)[C@H](C)O4)O3)O2)[C@H](C)C[C@@H]1C	8.49 µM	393 µM	4.6	inactive
CCCCCCCCNC(=O)O[C@H]1C=C[C@]2(O[C@H]([C@@H](CC)C(=O)[C@@H](C)[C@@H](O)[C@H](C)[C@@H]3O[C@@H]([C@@H](CC)C(=O)O)CC[C@@H]3C)[C@@H](C)C[C@H]2C)O[C@@]12CC[C@@](C)([C@H]1CC[C@](O)(CC)[C@H](C)O1)O2	0.2 µM	24.6 µM	123	–
C#CCNC(=O)[C@H](CC)[C@H]1CC[C@H](C)[C@H]([C@@H](C)[C@H](O)[C@H](C)C(=O)[C@H](CC)[C@H]2O[C@]3(C=C[C@H](O)[C@]4(CC[C@@](C)([C@H]5CC[C@](O)(CC)[C@H](C)O5)O4)O3)[C@H](C)C[C@@H]2C)O1	2.97 µM	44.8 µM	15.1	–
CC[C@@H](C(=O)[C@@H](C)[C@@H](O)[C@H](C)[C@@H]1O[C@@H]([C@@H](CC)C(=O)O)CC[C@@H]1C)[C@H]1O[C@]2(C=C[C@H](OC(=O)C34CC5CC(CC(C5)C3)C4)[C@]3(CC[C@@](C)([C@H]4CC[C@](O)(CC)[C@H](C)O4)O3)O2)[C@H](C)C[C@@H]1C	0.24 µM	18.7 µM	55	–
C#CCNC(=O)[C@H](CC)[C@H]1CC[C@H](C)[C@H]([C@@H](C)[C@H](O)[C@H](C)C(=O)[C@H](CC)[C@H]2O[C@]3(C=C[C@H](OC(=O)OCC)[C@]4(CC[C@@](C)([C@H]5CC[C@](O)(CC)[C@H](C)O5)O4)O3)[C@H](C)C[C@@H]2C)O1	13.8 µM	61.8 µM	106	–
CCNC(=O)N(CC)C(=O)O[C@H]1C=C[C@]2(O[C@H]([C@@H](CC)C(=O)[C@@H](C)[C@@H](O)[C@H](C)[C@@H]3O[C@@H]([C@@H](CC)C(=O)O)CC[C@@H]3C)[C@@H](C)C[C@H]2C)O[C@@]12CC[C@@](C)([C@H]1CC[C@](O)(CC)[C@H](C)O1)O2	0.027 µM	9.54 µM	353	Active
C#CCOC(=O)[C@H](CC)[C@H]1CC[C@H](C)[C@H]([C@@H](C)[C@H](O)[C@H](C)C(=O)[C@H](CC)[C@H]2O[C@]3(C=C[C@H](O)[C@]4(CC[C@@](C)([C@H]5CC[C@](O)(CC)[C@H](C)O5)O4)O3)[C@H](C)C[C@@H]2C)O1	26.9 µM	> 100 µM	> 3.7	–
CC[C@@H](C(=O)[C@@H](C)[C@@H](O)[C@H](C)[C@@H]1O[C@@H]([C@@H](CC)C(=O)O)CC[C@@H]1C)[C@H]1O[C@]2(C=C[C@H](OC(=O)OCC(C)(C)C)[C@]3(CC[C@@](C)([C@H]4CC[C@](O)(CC)[C@H](C)O4)O3)O2)[C@H](C)C[C@@H]1C	21.6 µM	42.4 µM	2	–
CCCCCCCCCC(=O)O[C@H]1C=C[C@]2(O[C@H]([C@@H](CC)C(=O)[C@@H](C)[C@@H](O)[C@H](C)[C@@H]3O[C@@H]([C@@H](CC)C(=O)O)CC[C@@H]3C)[C@@H](C)C[C@H]2C)O[C@@]12CC[C@@](C)([C@H]1CC[C@](O)(CC)[C@H](C)O1)O2	2.48 µM	5.97 µM	165	Active

Further lines, with some results ahead:

GI50 [2]	SMILES	GI50 [1]	selectivity ratio [3]	Activity [4]
22.4 µM	C#CCOC(=O)[C@H](CC)[C@H]1CC[C@H](C)[C@H]([C@@H](C)[C@H](O)[C@H](C)C(=O)[C@H](CC)[C@H]2O[C@]3(C=C[C@H](OC(C)=O)[C@]4(CC[C@@](C)([C@H]5CC[C@](O)(CC)[C@H](C)O5)O4)O3)[C@H](C)C[C@@H]2C)O1	> 100 µM	123	–
15 µM	C#CCOC(=O)[C@H](CC)[C@H]1CC[C@H](C)[C@H]([C@@H](C)[C@H](O)[C@H](C)C(=O)[C@H](CC)[C@H]2O[C@]3(C=C[C@H](OC(=O)OCC)[C@]4(CC[C@@](C)([C@H]5CC[C@](O)(CC)[C@H](C)O5)O4)O3)[C@H](C)C[C@@H]2C)O1	> 100 µM	> 312	–
0.34 µM	CC[C@@H](C(=O)[C@@H](C)[C@@H](O)[C@H](C)[C@@H]1O[C@@H]([C@@H](CC)C(=O)O)CC[C@@H]1C)[C@H]1O[C@]2(C=C[C@H](OC(=O)c3ccccc3)[C@]3(CC[C@@](C)([C@H]4CC[C@](O)(CC)[C@H](C)O4)O3)O2)[C@H](C)C[C@@H]1C	13.5 µM	67.5	–
0.036 µM	CC[C@@H](C(=O)[C@@H](C)[C@@H](O)[C@H](C)[C@@H]1O[C@@H]([C@@H](CC)C(=O)O)CC[C@@H]1C)[C@H]1O[C@]2(C=C[C@H](OC(=O)C(C)C)[C@]3(CC[C@@](C)([C@H]4CC[C@](O)(CC)[C@H](C)O4)O3)O2)[C@H](C)C[C@@H]1C	21.6 µM	90	–
3.15 µM	CC[C@@H](C(=O)[C@@H](C)[C@@H](O)[C@H](C)[C@@H]1O[C@@H]([C@@H](CC)C(=O)O)CC[C@@H]1C)[C@H]1O[C@]2(C=C[C@H](OC(=O)Nc3ccccc3)[C@]3(CC[C@@](C)([C@H]4CC[C@](O)(CC)[C@H](C)O4)O3)O2)[C@H](C)C[C@@H]1C	57.2 µM	18.2	–
20.9 µM	C#CCNC(=O)[C@H](CC)[C@H]1CC[C@H](C)[C@H]([C@@H](C)[C@H](O)[C@H](C)C(=O)[C@H](CC)[C@H]2O[C@]3(C=C[C@H](OC(C)=O)[C@]4(CC[C@@](C)([C@H]5CC[C@](O)(CC)[C@H](C)O5)O4)O3)[C@H](C)C[C@@H]2C)O1	39.8 µM	2	–
0.32 µM	CC[C@@H](C(=O)[C@@H](C)[C@@H](O)[C@H](C)[C@@H]1O[C@@H]([C@@H](CC)C(=O)ONC(=O)c2ccccc2)CC[C@@H]1C)[C@H]1O[C@]2(C=C[C@H](O)[C@]3(CC[C@@](C)([C@H]4CC[C@](O)(CC)[C@H](C)O4)O3)O2)[C@H](C)C[C@@H]1C	9.54 µM	29.8	–
2.81 µM	CC[C@@H](C(=O)[C@@H](C)[C@@H](O)[C@H](C)[C@@H]1O[C@@H]([C@@H](CC)C(=O)ONC(=O)c2ccccc2O)CC[C@@H]1C)[C@H]1O[C@]2(C=C[C@H](O)[C@]3(CC[C@@](C)([C@H]4CC[C@](O)(CC)[C@H](C)O4)O3)O2)[C@H](C)C[C@@H]1C	33.2 µM	11.8	–
0.59 µM	CC[C@@H](C(=O)[C@@H](C)[C@@H](O)[C@H](C)[C@@H]1O[C@@H]([C@@H](CC)C(=O)ONC(=O)c2ccccc2O)CC[C@@H]1C)[C@H]1O[C@]2(C=C[C@H](OC(C)=O)[C@]3(CC[C@@](C)([C@H]4CC[C@](O)(CC)[C@H](C)O4)O3)O2)[C@H](C)C[C@@H]1C	203 µM	353	–
0.32 µM	CC[C@@H](C(=O)[C@@H](C)[C@@H](O)[C@H](C)[C@@H]1O[C@@H]([C@@H](CC)C(=O)O)CC[C@@H]1C)[C@H]1O[C@]2(C=C[C@H](OC(=O)NC(C)(C)C)[C@]3(CC[C@@](C)([C@H]4CC[C@](O)(CC)[C@H](C)O4)O3)O2)[C@H](C)C[C@@H]1C	> 100 µM	> 312	–
0.22 µM	CC[C@@H](C(=O)[C@@H](C)[C@@H](O)[C@H](C)[C@@H]1O[C@@H]([C@@H](CC)C(=O)O)CC[C@@H]1C)[C@H]1O[C@]2(C=C[C@H](OC(=O)Oc3ccccc3)[C@]3(CC[C@@](C)([C@H]4CC[C@](O)(CC)[C@H](C)O4)O3)O2)[C@H](C)C[C@@H]1C	23.4 µM	106	–
0.47 µM	CC[C@@H](C(=O)[C@@H](C)[C@@H](O)[C@H](C)[C@@H]1O[C@@H]([C@@H](CC)C(=O)ONC(=O)c2ccccc2)CC[C@@H]1C)[C@H]1O[C@]2(C=C[C@H](OC(C)=O)[C@]3(CC[C@@](C)([C@H]4CC[C@](O)(CC)[C@H](C)O4)O3)O2)[C@H](C)C[C@@H]1C	19.1 µM	18.2	–

— ChEMBL document CHEMBL4732069, “Singly and doubly modified analogues of C20-epi-salinomycin: A new group of antiparasitic agents against Trypanosoma brucei” (Eur J Med Chem, 2021)
